Reference: patent US20040077625A1, “Novel 1,4-benzothiazepine and 1,5-benzothiazepine compounds as inhibitors of apical sodium codependent bile acid transport abd taurocholate uptake” (priority 2001, published 2004)

Target: T1, human IBAT (Homo sapiens, UniProt Q12908)
T1 construct: expressed in transfected cells; host or cells: Baby hamster kidney (BHK) cells, H14 cells
T1 sequence (Q12908 1-348): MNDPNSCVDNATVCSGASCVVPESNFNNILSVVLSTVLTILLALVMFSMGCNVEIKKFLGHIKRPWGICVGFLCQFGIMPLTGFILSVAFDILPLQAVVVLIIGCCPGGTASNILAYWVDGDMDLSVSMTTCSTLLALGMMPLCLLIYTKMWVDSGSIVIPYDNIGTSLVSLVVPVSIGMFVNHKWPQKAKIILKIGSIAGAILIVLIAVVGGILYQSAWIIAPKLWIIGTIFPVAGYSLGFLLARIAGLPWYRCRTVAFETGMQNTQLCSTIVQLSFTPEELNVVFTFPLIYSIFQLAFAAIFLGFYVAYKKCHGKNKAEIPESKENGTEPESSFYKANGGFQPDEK
Test: In vitro assay of compounds that inhibit IBAT-mediated uptake of [14C]-taurocholate (TC) in H14 cells
Format: cell-based
Conditions: Table 8, 1, 4 and 1, 5 benzothiazipines
Description: In Vitro Assay of Compounds that Inhibit IBAT-Mediated Uptake of [^14C]-Taurocholate (TC) in H14Cells
Baby hamster kidney cells (BHK) transfected with the cDNA of human IBAT (H14 cells) are seeded in 96 well Top-Count tissue culture plates at 60,000 cells/well for assays run within 24 hours of seeding, 30,000 cells/well for assays run within 48 hours, and 10,000 cells/well for assays run within 72 hours.
On the day of assay, the cell monolayer is gently washed once with […] (Dulbecco's Modified Eagle's medium with 4.5 g/L glucose plus 0.2% (w/v) fatty acid free bovine serum albumin ((FAF)BSA). To each well […] of a two-fold concentrate of test compound in assay buffer is added along with […] of […] [^14C]-taurocholate in assay buffer (final concentration of […] [^14C]-taurocholate). The cell culture plates are incubated 2 hours at 37° C. prior to gently washing each well twice with […] 4° C. Dulbecco's phosphate-buffered saline (PBS) containing 0.2% (w/v) (FAF)BSA. The wells are then gently washed once with […] 4° C. PBS without (FAF)BSA. To each […] of liquid, scintillation counting fluid is added. The plates are heat sealed and shaken for 30 minutes at room temperature prior to measuring the amount of radioactivity in each well on a Packard Top-Count instrument.

IC50: 497 nM
Compound: CCCCC1(CCCC)CS(=O)(=O)c2ccc(N(C)C)cc2[C@@H](c2ccc(OC)cc2)N1 (racemic) [Compound 2, 3.3-Dibutyl-2.3,4,5-tetrahydro-7-dimethylamino-5-(4′-methoxyphenyl)-1,4-benzothiazepine 1,1-dioxide]
